Measurements: patent publication US20230416328A1, “C-Type Natriuretic Peptides and Methods Thereof in Treating Acute Lung Injury” (priority 2020, published 2023)
Numbered stars: 1 amine (or outer) side, 2 acyl side, 3 side chain; on linkers, the order of the positions; unused ones are H or OH. Bridge positions count the residues as written; N and C are the ends. Square brackets hold non-standard residues; d marks the D form. Peptide text beside a SMILES is read from it. * marks the point of attachment. C18 diacid = O=C(O)CCCCCCCCCCCCCCCCC(=O)*; γGlu = O=C(O)[C@H](CCC(=O)[*:2])N[*:1]; Aad = N[C@@H](CCCC(=O)O)C(=O)O; AEEA = NCCOCCOCC(=O)O

Key:
[1] = species not stated; cited from earlier work
[2] = Pharmacokinetic study: plasma CNP (ELISA) after subcutaneous bolus in CD-1 mice
Protocol: All test articles were formulated or dissolved in 100 mM sorbitol, 100 mM methionine, 20 mM histidine, pH 6.0. […] Blood samples were processed in K2EDTA tubes to obtain plasma. Plasma was analyzed by commercially available CNP ELISA kit from Phoenix Pharmaceuticals (cat #EKE-012-03).

[3] = healthy human volunteers, bolus injection; cited from earlier work
[4] = Pharmacokinetic study of dCNP-s1 and dCNP-s2: plasma CNP (ELISA) in CD-1 mice; format: in vivo; conditions: 2.0 mg/Kg s.c. bolus, FIG. 20
Protocol: For this pharmacokinetic study, all animals (mice) for this study were maintained under a 12-hour light/12-hour dark cycle with free access to water and standard mouse diet (Lab Pico Rodent #5053; Animal Specialties, Woodburn, OR). Male CD-1 mice (6-8 weeks old; Charles River, Hollister, CA) were treated with 2.0 mg/Kg of CNP derivative s1 (dCNP-s1; PharmaIN Corp, Bothell, WA), and CNP derivative s2 (dCNP-s2; PharmaIN Corp, Bothell, WA) via subcutaneous administration between the shoulder blades.

[5] = in vivo; cited from earlier work
LPS-induced sepsis = LPS-induced sepsis lethality in Balb/c mice (survival); format: in vivo; conditions: LPS 10 mg/kg i.p., 1.0 mg/kg s.c.
Protocol: Male Balb/c mice (11 week) were purchased from Kyudo (Saga, Japan) and maintained under a 12-hour light/12-hour dark cycle with free access to water and standard mouse diet (MF diet, Oriental Yeast Co., Ltd. Tokyo, Japan). […] Test articles were administered right after LPS administration. Survival was observed every 2 hours.
Table 1. […] Shown is the % survival by hours. […] Survival was observed every 2 hours (FIGS. 13A and 13B). First mortality observed was in Italicized and bold and the last observation survival % was in bold in the table.

[6] = hours '0' [sic] (second to last observation)

Molecule	Percent animal survival at various time after LPS administration (LPS-induced sepsis; hours 1 (last observation)) [%]	Percent animal survival at various time after LPS administration (LPS-induced sepsis; hours 3 [sic]) [%]	Percent animal survival at various time after LPS administration (LPS-induced sepsis; hours 7 [sic]) [%]	Percent animal survival at various time after LPS administration (LPS-induced sepsis; hours 9 [sic]) [%]	Percent animal survival at various time after LPS administration (LPS-induced sepsis; hours '0') [%]	Percent animal survival at various time after LPS administration (LPS-induced sepsis; [6]) [%]	Percent animal survival at various time after LPS administration (LPS-induced sepsis; hours '2') [%]	Percent animal survival at various time after LPS administration (LPS-induced sepsis; hours '8') [%]	also measured
CC[C@H](C)[C@@H]1NC(=O)[C@H](CCCNC(=N)N)NC(=O)[C@H](CC(=O)O)NC(=O)[C@H](CC(C)C)NC(=O)[C@H](CCCCN)NC(=O)[C@H](CC(C)C)NC(=O)CNC(=O)[C@H](Cc2ccccc2)NC(=O)[C@@H](NC(=O)CNC(=O)[C@H](CCCCN)NC(=O)[C@H](CO)NC(=O)[C@H](CC(C)C)NC(=O)CN)CSSC[C@@H](C(=O)O)NC(=O)CNC(=O)[C@H](CC(C)C)NC(=O)CNC(=O)[C@H](CO)NC(=O)[C@H](CCSC)NC(=O)[C@H](CO)NC(=O)CNC1=O [CNP]									half-life [1]: 2 to 13 min; plasma CNP ([2]; CD-1 mice, 2.0 mg/Kg s.c. bolus, FIG. 1A): low plasma level of CNP; heart rate [3]: significant increase in heart rate; systolic and diastolic blood pressure [3]: transient but significant decrease
CC[C@H](C)[C@@H]1NC(=O)[C@H](CCCNC(=N)N)NC(=O)[C@H](CC(=O)O)NC(=O)[C@H](CC(C)C)NC(=O)[C@H](CCCCN)NC(=O)[C@H](CC(C)C)NC(=O)CNC(=O)[C@H](Cc2ccccc2)NC(=O)[C@@H](NC(=O)CNC(=O)COCCOCCNC(=O)COCCOCCNC(=O)CCCCCCCCCCCCCCCCC(=O)O)CSSC[C@@H](C(=O)O)NC(=O)CNC(=O)[C@H](CC(C)C)NC(=O)CNC(=O)[C@H](CO)NC(=O)[C@H](CCCC(N)=O)NC(=O)[C@H](CO)NC(=O)CNC1=O [dCNP-s1] ({C18 diacid-AEEA-AEEA}-GCFGLKLDRIGS[Aad](NH2)SGLGC-OH; disulfide 2-18)									blood level of CNP relative to native CNP at similar weight/Kg dose [4]: 10 fold
CCCCCCCCCCCCCCCCCC(=O)N[C@@H](CCCCN)C(=O)N[C@@H](CCCCN)C(=O)N[C@@H](CCCCN)C(=O)N[C@@H](CCCCN)C(=O)NCC(=O)NCC(=O)NCC(=O)NCC(=O)N[C@@H](CC(C)C)C(=O)N[C@@H](CO)C(=O)N[C@@H](CCCCN)C(=O)NCC(=O)N[C@H]1CSSC[C@@H](C(=O)O)NC(=O)CNC(=O)[C@H](CC(C)C)NC(=O)CNC(=O)[C@H](CO)NC(=O)[C@H](CCSC)NC(=O)[C@H](CO)NC(=O)CNC(=O)[C@H]([C@@H](C)CC)NC(=O)[C@H](CCCNC(=N)N)NC(=O)[C@H](CC(=O)O)NC(=O)[C@H](CC(C)C)NC(=O)[C@H](CCCCN)NC(=O)[C@H](CC(C)C)NC(=O)CNC(=O)[C@H](Cc2ccccc2)NC1=O [dCNP]									plasma CNP ([2]; mouse, in vivo, sc, 2 mg/kg): sustained plasma presence
PGQEHPNARKYKGANKKGLS KGCFGLKLDR IGSMSGLGC (PGQEHPNARKYKGANKKGLSKGCFGLKLDRIGSMSGLGC) [BMN-111]									arterial blood pressure (BP) [5]: drops; heart rate (HR) [5]: increases
B-type natriuretic peptide [BNP]	10	100	60	20	100	10	100	20	Percent animal survival at various time after LPS administration (LPS-induced sepsis; hours printed '5' (r13)): 100%
CCCc1nc(C)c2c(=O)[nH]c(-c3cc(S(=O)(=O)N4CCN(CC)CC4)ccc3OCC)nn12 [VDN, Vardenafil]	0	100	60	20	100	0	100	20	Percent animal survival at various time after LPS administration (LPS-induced sepsis; hours printed '5' (r13)): 100%
CC[C@H](C)[C@@H]1NC(=O)[C@H](CCCNC(=N)N)NC(=O)[C@H](CC(=O)O)NC(=O)[C@H](CC(C)C)NC(=O)[C@H](CCCCN)NC(=O)[C@H](CC(C)C)NC(=O)CNC(=O)[C@H](Cc2ccccc2)NC(=O)[C@@H](NC(=O)CNC(=O)COCCOCCNC(=O)COCCOCCNC(=O)CC[C@H](NC(=O)CCCCCCCCCCCCCCCCC(=O)O)C(=O)O)CSSC[C@@H](C(=O)O)NC(=O)CNC(=O)[C@H](CC(C)C)NC(=O)CNC(=O)[C@H](CO)NC(=O)[C@H](CCCC(N)=O)NC(=O)[C@H](CO)NC(=O)CNC1=O [dCNP-s2] ({C18 diacid-γGlu-AEEA-AEEA}-GCFGLKLDRIGS[Aad](NH2)SGLGC-OH; disulfide 2-18)									blood level of CNP relative to native CNP at similar weight/Kg dose [4]: 10 fold
CC[C@H](C)[C@@H]1NC(=O)[C@H](CCCNC(=N)N)NC(=O)[C@H](CC(=O)O)NC(=O)[C@H](CCSC)NC(=O)[C@H](CCCNC(=N)N)NC(=O)CNC(=O)CNC(=O)[C@H](Cc2ccccc2)NC(=O)[C@@H](NC(=O)[C@H](CO)NC(=O)[C@H](CO)NC(=O)[C@H](CCCNC(=N)N)NC(=O)[C@H](CCCNC(=N)N)NC(=O)[C@H](CC(C)C)NC(=O)[C@@H](N)CO)CSSC[C@@H](C(=O)N[C@@H](CC(N)=O)C(=O)N[C@@H](CO)C(=O)N[C@@H](Cc2ccccc2)C(=O)N[C@@H](CCCNC(=N)N)C(=O)N[C@@H](Cc2ccc(O)cc2)C(=O)O)NC(=O)CNC(=O)[C@H](CC(C)C)NC(=O)CNC(=O)[C@H](CO)NC(=O)[C@H](CCC(N)=O)NC(=O)[C@H](C)NC(=O)CNC1=O [ANP, atrial natriuretic peptide]	10	100	60	30	100	10	100	30	Percent animal survival at various time after LPS administration (LPS-induced sepsis; hours printed '6' (r14)): 60%
